Results: paper PMC9570898, “Comparing Variants of the Cell-Penetrating Peptide sC18 to Design Peptide-Drug Conjugates” (Molecules, 2022)
Residues, ends and D or L forms follow the SMILES beside them. No end group written: not given here. *: point of attachment. X1 = COc1cccc2c1C(=O)c1c(O)c3c(c(O)c1C2=O)C[C@@](O)(C(=O)CO)C[C@@H]3O[C@H]1C[C@H](NC(=O)CCN2C(=O)CC(*)C2=O)[C@H](O)[C@H](C)O1

Assays:
[1] = tested on: HFF-1 cells; test: Cytotoxicity (resazurin) assay in HFF-1 cells; assay type: cell-based, human; details: 24 h treatment, different concentrations, lowest viability reached
[2] = tested on: HeLa cells; test: Cytotoxicity (resazurin) assay in HeLa cells; details: 24 h; for EC50: 37 °C, 2.5-70 µM, Dox data not shown
Experimental: For cell viability assay, cells were (15,000 HeLa, 17,000 MCF-7 and 12,000 HFF-1 cells per well) seeded onto a 96-well plate and grown to 80–90% confluency. Cells were incubated with several peptide concentrations in a serum-free growth medium for 24 h under standard growth conditions. For the positive control, cells were treated with 70% EtOH for 7 min. After washing with DPBS, resazurin solution (10% in serum-free media, v/v) was incubated with the cells for 1 h under standard growth conditions. The cell viability was determined relative to untreated cells by measurement of the resorufin product at 595 nm (λex = 550 nm) on a Tecan infinite M200 plate reader (Tecan Group AG, Männedorf, Switzerland).
Figure 2 (A,B): Cytotoxicity profiles of the peptides in HeLa and HEK-293 cells. Cells were cultured and incubated at pH 7.4 for 24 h with different concentrations of peptide solutions. Untreated cells served as negative control; cells treated with 70% ethanol as positive control. Values from the positive control were subtracted from all data, and the untreated cells were set to 100%; assays were performed with n = 3 in triplicate. (C): Flow cytometry analysis of HeLa or HEK-293 cells after incubating 1 and 10 µM peptide solutions for 30 min at 37 °C; assays were conducted in triplicate n = 3. (D): Confocal laser scanning microscopy analysis of 10 µM CF-labeled peptides after 30 min of incubation in HeLa cells. Green: CF-labeled peptides; blue: Hoechst 33342 nuclear stain; scale bar is 10 µm.
Figure 5 (A): Cytotoxicity assay using HFF-1 cells. Different PDC concentrations were incubated with the cells for 24 h at 37 °C and a resazurin assay was conducted. (B): Dose-response curves for peptide drug conjugates were obtained using the resazurin assay. For this, HeLa cells were treated with various conjugate concentrations (2.5–70 µM) for 24 h at 37 °C. (C): Quantification of PDC internalization in HeLa cells; 10 µM PDC solutions were incubated with cells for 30 min at 37 °C and cells were inspected using a flow cytometer; assays were conducted in triplicate n = 3.

[3] = tested on: HeLa cells; test: Cellular uptake by flow cytometry in HeLa cells; assay type: cell-based, human; details: 30 min; for cellular uptake: 1 and 10 µM CF-labeled peptide, 37 °C, serum-free medium
Experimental: (§1) Monolayer cellular uptake was quantified using flow cytometry. Cells were seeded onto a 24-well plate (HeLa: 90,000, HEK293: 100,000 and MCF-7 130,000 cells per well) and grown to 80–90% confluency. Then, cells were incubated with the labeled peptides/conjugates in a serum-free medium at 37 °C for various incubation times, and subsequently washed twice with PBS and detached with indicator-free trypsin resuspended in an indicator-free serum-containing medium. The cell suspension was transferred into a 96-well FACS plate and fluorescence was then measured by a Guava easyCyte flow cytometer (Merck, Darmstadt, Germany).The blue laser was used for all measurements, FSC (1137–1538), SSC (3020–4086), Grn-B (647–875) and Red-B (694–939). Cellular autofluorescence of untreated control cells was subtracted.

[4] = tested on: HeLa cells; test: Fluorescence microscopy of intracellular distribution in HeLa cells; assay type: cell-based, human; details: 30 min; for intracellular distribution of PDC: 5 µM conjugate, 37 °C, fluorescence microscopy; for intracellular accumulation / uptake pattern: 10 µM CF-labeled peptide, confocal fluorescence microscopy
Experimental: Cells were seeded into 8-well plates (HeLa cells 35,000 and HFF-1 25,000 cells per well, respectively) and grown to 80–90% confluency. Cells were treated with 10 μM CF- or dox-labeled peptides in a serum-free medium for 30 min at 37 °C. Ten minutes prior to the end of the incubation time, nuclei were stained with Hoechst33342. The peptide solution was removed, and cells were washed five times with PBS and covered with fresh medium including FBS. Microscopic analysis was performed using an inverse confocal TCS SP8 microscope (Leica Microsystems, Wetzlar, Germany), equipped with a 63× oil-immersion objective. Images were recorded with LAS X software (LAS_X_Core_3.7.6_25997, Leica Microsystems, Wetzlar, Germany). For the GUV analysis and the uptake of the peptide-drug conjugates the Keyence fluorescence tabletop microscope BZ-X800E (Keyence, Osaka, Japan), with a 60× oil immersion lens was used. Images were recorded with Keyence software (BZ-800X_Analyzer 1.1.1.8, Keyence, Osaka: Japan) and evaluated with Fiji.
Figure 6 Fluorescence microscope analysis of 5 µM conjugates after 30 min of incubation at 37 °C in HeLa and HFF-1 cells. Red: peptides coupled to red fluorophore Doxorubicin; blue: Hoechst 33342 nuclear stain; BF: brightfield to identify living cells; scale bar is 20 µm.

[5] = tested on: HEK293 cells; test: Cellular uptake by flow cytometry in HEK293 cells; assay type: cell-based, human; details: 1 and 10 µM CF-labeled peptide, 30 min, 37 °C, serum-free medium
Experimental: as §1

[6] = tested on: MCF-7 cells; test: Cell viability (resazurin) assay in MCF-7 cells at pH 7.4 or 6.8; assay type: cell-based, human; details: MCF-7 cells cultivated at pH 7.4 or 6.8, 24 h, various concentrations, triplicate n = 3
Experimental: For pH-dependent studies, the cells were cultivated and incubated at pH 6.8 or 7.4, respectively.
Figure 1 (A,B): Cell-viability assays using MCF-7 cells. Cells were cultivated at pH 7.4 or pH 6.8, respectively, for 24 h using different concentrations of peptide solutions. […] (C): Cellular uptake of histidine peptides in MCF-7 cells.

[7] = tested on: HEK-293 spheroids; test: Flow cytometry of HEK-293 spheroids; assay type: cell-based, human; details: 10 µM CF-labeled peptides, 30 min or 1 h
Experimental: For the preparation and seeding of spheroids, cells were washed and trypsinized as described above. Cells were transferred into a fresh 15 mL centrifuge tube and centrifuged for 5 min at 300× g and rt. The supernatant was removed carefully and the pellet was resuspended in an appropriate medium supplemented with FBS. Cells were counted and a cell mixture was prepared, which would be sufficient for 100 drops (3 mL). Within this mixture a total amount of 1.5 × 10^6 cells (HEK-293 and HeLa cells) and 20% (v/v) methylcellulose (1.2 mg/mL) were required. The missing volume was filled up with an appropriate medium containing FBS; 30 μL drops were pipetted into the inverted lid of a petri dish (15,000 cells per drop), the bottom was covered with PBS and spheroids were grown in hanging drops for two or three days at 37 °C and 5% CO2, respectively.
For flow cytometry studies with tumor spheroids, the spheroids were prepared and grown as described above (4.7). […] After the spheroids started to fall apart, 850 μL of medium with FBS (indicator free) was added and the spheroids were resuspended to generate a homogenous cell suspension; 200 μL of each sample were transferred into a fresh round-bottom 96-well plate and analyzed on a Guava® easyCyte flow cytometer (Merck, Darmstadt, Germany). […]

[8] = triplicate n = 3, listed as sC18^ΔE

Compound: COc1cccc2c1C(=O)c1c(O)c3c(c(O)c1C2=O)C[C@@](O)(C(=O)CO)C[C@@H]3O[C@H]1C[C@H](N)[C@H](O)[C@H](C)O1.Cl [Dox, doxorubicin hydrochloride, reference compound]
- cell viability [1]: 72%
- EC50 ([2]; resazurin assay): 6.78 µM

Compound: CC[C@H](C)[C@H](NC(=O)[C@H](CCCCN)NC(=O)[C@H](CC(N)=O)NC(=O)[C@H](CCCNC(=N)N)NC(=O)[C@H](Cc1ccccc1)NC(=O)[C@H](CCCCN)NC(=O)[C@H](CCCNC(=N)N)NC(=O)[C@H](CC(C)C)NC(=O)[C@H](CCCNC(=N)N)NC(=O)[C@H](CCCCN)NC(=O)[C@H](CCCNC(=N)N)NC(=O)[C@H](CC(C)C)NC(=O)CNC(=O)[C@@H](N)CSC1CC(=O)N(CCC(=O)N[C@H]2C[C@H](O[C@H]3C[C@](O)(C(=O)CO)Cc4c(O)c5c(c(O)c43)C(=O)c3c(OC)cccc3C5=O)O[C@@H](C)[C@H]2O)C1=O)C(=O)N[C@@H](CCCCN)C(=O)N[C@@H](CCCCN)C(N)=O (stereo partly drawn) [PDC-2] (H-C(X1)GLRKRLRKFRNKIKK-NH2)
- PDC internalization ([3]; 5 µM PDC (text; legend of Figure 5C: 10 µM), doxorubicin red fluorescence): enhanced compared to the other two
- intracellular distribution of PDC [4]: clustering inside the cytosol
- EC50 ([2]; resazurin assay): 14.5 µM

Compound: COc1cccc2c1C(=O)c1c(O)c3c(c(O)c1C2=O)C[C@@](O)(C(=O)CO)C[C@@H]3O[C@H]1C[C@H](NC(=O)CCN2C(=O)CC(SC[C@H](N)C(=O)NCC(=O)N[C@@H](CC(C)C)C(=O)N[C@@H](CCCNC(=N)N)C(=O)N[C@@H](CCCCN)C(=O)N[C@@H](CCCNC(=N)N)C(=O)N[C@@H](CC(C)C)C(=O)N[C@@H](CCCNC(=N)N)C(=O)N[C@@H](CCCCN)C(=O)N[C@@H](Cc3ccccc3)C(=O)N[C@@H](CCCNC(=N)N)C(=O)N[C@@H](CC(N)=O)C(=O)N[C@@H](CCCCN)C(N)=O)C2=O)[C@H](O)[C@H](C)O1 (stereo partly drawn) [PDC-3] (H-C(X1)GLRKRLRKFRNK-NH2)
- EC50 ([2]; resazurin assay): 27 µM

Compound: CC[C@H](C)[C@H](NC(=O)[C@H](CCCCN)NC(=O)[C@H](CC(N)=O)NC(=O)[C@H](CCCNC(=N)N)NC(=O)[C@H](Cc1ccccc1)NC(=O)[C@H](CCCCN)NC(=O)[C@H](CCCNC(=N)N)NC(=O)[C@H](CC(C)C)NC(=O)[C@H](CCCNC(=N)N)NC(=O)[C@H](CCCCN)NC(=O)[C@H](CCCNC(=N)N)NC(=O)[C@H](CC(C)C)NC(=O)CNC(=O)[C@@H](N)CSC1CC(=O)N(CCC(=O)N[C@H]2C[C@H](O[C@H]3C[C@](O)(C(=O)CO)Cc4c(O)c5c(c(O)c43)C(=O)c3c(OC)cccc3C5=O)O[C@@H](C)[C@H]2O)C1=O)C(=O)N[C@@H](CCCCN)C(=O)N[C@@H](CCC(=O)O)C(=O)N[C@@H](CCCCN)C(N)=O (stereo partly drawn) [PDC-1] (H-C(X1)GLRKRLRKFRNKIKEK-NH2)
- intracellular distribution of PDC [4]: more fluorescence was also measured within the nuclei
- EC50 ([2]; resazurin assay): 15.3 µM

Compound: GLRKRLRKFRNKIKEK-NH2 [sC18]
- cellular uptake ([3]; triplicate n = 3): to a little extent
- cellular uptake [3, 8]: highly significant and enhanced internalization
- intracellular accumulation / uptake pattern [4]: far lower compared to the other two novel peptides
- intracellular accumulation / uptake pattern ([4]; listed as sC18^ΔE): accumulated in a dot-like manner within the cell interior and did not reach the nuclei
- cell viability at 100 µM ([2]; concentration increased up to 100 µM, resazurin assay): ≥ 75%
- concentration up to which no toxic effect was observed ([2]; pH 7.4, resazurin assay, n = 3 in triplicate): 50 µM
- cellular uptake ([5]; triplicate n = 3): to a little extent
- cellular uptake [5, 8]: highly significant and enhanced internalization
- cytotoxicity [6]: slightly more toxic at higher concentrations
- accumulation in spheroids [7]: most efficient variants
